For 2 molecules, Km results are on record in publication doi:10.1101/139675v1, “Purification of the mammalian NgBR/hCIT cis-prenyltransferase complex: Identification of a conserved carboxyterminal RxG motif crucial for enzymatic activity” (biorxiv, 2017).

Structures are written as SMILES.

The target in the test is T1, NgBR/hCIT complex (hcisPT) (Homo sapiens, UniProt Q86SQ9+Q96E22).
T1 construct: gene DHDDS; full-length; N-terminal Strep-tag on hCIT, internal 6-His tag after Gly31 of NgBR; bicistronic vector in Expi293F
T1 sequence (Q86SQ9 1-333): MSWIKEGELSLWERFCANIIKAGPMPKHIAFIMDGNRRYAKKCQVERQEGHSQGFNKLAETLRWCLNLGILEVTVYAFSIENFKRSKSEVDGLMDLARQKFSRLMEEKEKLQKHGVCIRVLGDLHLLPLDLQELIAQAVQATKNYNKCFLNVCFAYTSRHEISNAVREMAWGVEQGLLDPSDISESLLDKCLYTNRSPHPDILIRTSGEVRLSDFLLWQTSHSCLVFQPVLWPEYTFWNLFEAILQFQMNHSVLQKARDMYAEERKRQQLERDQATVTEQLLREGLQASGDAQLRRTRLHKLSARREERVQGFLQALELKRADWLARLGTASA
T1 sequence (Q96E22 1-293): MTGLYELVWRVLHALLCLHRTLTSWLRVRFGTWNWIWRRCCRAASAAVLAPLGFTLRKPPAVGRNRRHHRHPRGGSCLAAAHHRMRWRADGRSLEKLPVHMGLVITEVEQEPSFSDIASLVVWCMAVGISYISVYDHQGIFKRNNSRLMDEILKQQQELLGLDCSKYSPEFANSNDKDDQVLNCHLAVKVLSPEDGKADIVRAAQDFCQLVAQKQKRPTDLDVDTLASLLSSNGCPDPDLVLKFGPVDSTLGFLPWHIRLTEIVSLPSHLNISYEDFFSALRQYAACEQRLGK
In words: […]-IPP incorporation, Michaelis-Menten fit. The test is classed as biochemical. The settings on record: 50 mM Tris-HCl pH 8, 1 mM MgCl2, 1% phosphatidylinositol, 37 C.

Consider `CC(C)=CCC/C(C)=C/CC/C(C)=C/COP(=O)(O)OP(=O)(O)O` [FPP], for which the Km entry (100 uM IPP, 0.1-50 uM FPP) is “steady state kinetic parameters were measured for complexes containing the WT subunits, hCIT/NgBR”.
As to `C=C(C)CCOP(=O)(O)OP(=O)(O)O` [IPP], the Km result (50 uM FPP, 0.1-400 uM IPP, labelled compound) is “steady state kinetic parameters were measured for complexes containing the WT subunits, hCIT/NgBR”.
